Our source for the disease progression, overall survival and inhibition values is US9856268B2, “Lactam kinase inhibitors” (G1 Therapeutics, Inc., priority 2012, dated 2018).

For assay [1], the system named is treatment-refractory metastatic colorectal cancer. As to conditions: single agent, patients with treatment-refractory metastatic colorectal cancer, phase III; cited from earlier work.
The next assay concerns the target T1, Aurora -A (Homo sapiens, UniProt O14965).
T1 sequence (O14965 1-403): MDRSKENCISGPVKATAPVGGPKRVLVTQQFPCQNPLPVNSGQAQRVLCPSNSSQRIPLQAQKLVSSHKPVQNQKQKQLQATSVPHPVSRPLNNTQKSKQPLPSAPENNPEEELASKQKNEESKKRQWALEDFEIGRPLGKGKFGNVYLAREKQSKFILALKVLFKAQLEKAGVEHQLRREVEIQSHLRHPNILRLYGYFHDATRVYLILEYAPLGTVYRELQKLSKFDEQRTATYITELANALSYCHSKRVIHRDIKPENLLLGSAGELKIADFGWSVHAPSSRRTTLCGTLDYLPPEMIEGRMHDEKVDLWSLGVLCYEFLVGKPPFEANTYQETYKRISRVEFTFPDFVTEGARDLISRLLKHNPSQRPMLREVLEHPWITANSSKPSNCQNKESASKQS
In words: Kinase electrophoretic mobility shift assay, Aurora -A. In kind it is biochemical. As to conditions: compounds tested at 10 μM, average of n = 2, ATP at apparent Km; read-out: Aurora -A activity (percent inhibition). How it is done: (§1) Kinase activity is measured in vitro using electrophoretic mobility shift assay. The kinase reactions are assembled in 384 well plates in total volume of 25 μL. The reactions comprise: purified recombinant kinase enzyme, test compound, ATP (at apparent Km for each kinase), and fluorescently labeled peptide substrate. The reaction buffer composed of: 100 mM HEPES, pH7.5; 5 mM MgCl2; 1 mM DTT; 0.1% bovine serum albumin; 0.01% Triton X-100, and 1% DMSO (from compound). The reactions were incubated at room temperature for indicated time and quenched by addition of 45 μL of termination buffer (100 mM HEPES pH7.5; 0.01% Triton X-100; 30 mM EDTA). Substrate and product peptides in each sample were electrophoretically separated and detected using 12 channel LabChip3000® microfluidic capillary electrophoresis instrument (Caliper Life Sciences). The change in the relative fluorescence intensities of substrate and product peaks (reflecting enzyme activity) was measured. Capillary electrophoregramms were analyzed using HTS Well Analyzer software (Caliper Life Sciences). The kinase activity in each sample was determined as “product to sum” ratio (PSR):P/(S+P), where P is the peak height of the product peptide and S is the peak height of the substrate peptide. Negative control samples (0%-inhibition in the absence of inhibitor) and positive control samples (100%-inhibition, in the presence of 20 mM EDTA) were assembled in replicates of four and were used to calculate %-inhibition values for each compound at each concentration. Percent inhibition (Pinh) was determined using following equation: Pinh=(PSR0%−PSRinh)/(PSR0%−PSR100%)*100, where PSRinh is the product-sum ratio in the presence of inhibitor, PSR0% is the average product-sum ration in the absence of inhibitor and PSR100% is the average product-sum ratio in 100%-inhibition control samples. The IC50 values of reference inhibitors were determined by fitting the inhibition curves by a 4 parameter sigmoid dose-response model using XLfit 4 software (IDBS).

In a further assay the target is T2, DYRK3 (Homo sapiens, UniProt O43781).
T2 sequence (O43781 1-588): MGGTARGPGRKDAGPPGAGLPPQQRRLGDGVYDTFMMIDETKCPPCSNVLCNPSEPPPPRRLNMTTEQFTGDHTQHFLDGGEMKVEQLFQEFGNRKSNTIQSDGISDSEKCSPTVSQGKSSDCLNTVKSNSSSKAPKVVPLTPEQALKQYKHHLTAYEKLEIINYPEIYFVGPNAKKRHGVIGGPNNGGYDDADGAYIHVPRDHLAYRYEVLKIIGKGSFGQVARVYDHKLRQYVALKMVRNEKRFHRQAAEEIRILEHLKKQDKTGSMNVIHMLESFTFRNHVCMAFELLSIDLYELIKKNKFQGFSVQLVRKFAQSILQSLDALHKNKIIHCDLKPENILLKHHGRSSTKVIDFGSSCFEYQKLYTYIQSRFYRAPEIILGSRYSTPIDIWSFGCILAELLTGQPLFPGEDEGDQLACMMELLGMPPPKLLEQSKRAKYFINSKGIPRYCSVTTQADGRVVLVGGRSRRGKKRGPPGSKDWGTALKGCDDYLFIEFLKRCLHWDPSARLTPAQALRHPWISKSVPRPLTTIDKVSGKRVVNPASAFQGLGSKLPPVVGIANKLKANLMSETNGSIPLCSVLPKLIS
As to the kind of experiment: Kinase electrophoretic mobility shift assay, DYRK3. In kind it is biochemical. As to conditions: compounds tested at 10 μM, average of n = 2, ATP at apparent Km; read-out: DYRK3 activity (percent inhibition). How it is done: as §1

The next assay has as its target FMS (Homo sapiens, UniProt P07333). In words: Kinase electrophoretic mobility shift assay, FMS. In kind it is biochemical. As to conditions: compounds tested at 10 μM, average of n = 2, ATP at apparent Km; read-out: FMS activity (percent inhibition). As to the method:
as §1

In the next assay the target is GSK-3 beta (Homo sapiens, UniProt P49841). As to the kind of experiment: Kinase electrophoretic mobility shift assay, GSK-3 beta. In kind it is biochemical. As to conditions: compounds tested at 10 μM, average of n = 2, ATP at apparent Km; read-out: GSK-3 beta activity (percent inhibition). As to the method:
as §1

In a further assay the target is T3, HIPK4 (Homo sapiens, UniProt Q8NE63).
T3 sequence (Q8NE63 1-616): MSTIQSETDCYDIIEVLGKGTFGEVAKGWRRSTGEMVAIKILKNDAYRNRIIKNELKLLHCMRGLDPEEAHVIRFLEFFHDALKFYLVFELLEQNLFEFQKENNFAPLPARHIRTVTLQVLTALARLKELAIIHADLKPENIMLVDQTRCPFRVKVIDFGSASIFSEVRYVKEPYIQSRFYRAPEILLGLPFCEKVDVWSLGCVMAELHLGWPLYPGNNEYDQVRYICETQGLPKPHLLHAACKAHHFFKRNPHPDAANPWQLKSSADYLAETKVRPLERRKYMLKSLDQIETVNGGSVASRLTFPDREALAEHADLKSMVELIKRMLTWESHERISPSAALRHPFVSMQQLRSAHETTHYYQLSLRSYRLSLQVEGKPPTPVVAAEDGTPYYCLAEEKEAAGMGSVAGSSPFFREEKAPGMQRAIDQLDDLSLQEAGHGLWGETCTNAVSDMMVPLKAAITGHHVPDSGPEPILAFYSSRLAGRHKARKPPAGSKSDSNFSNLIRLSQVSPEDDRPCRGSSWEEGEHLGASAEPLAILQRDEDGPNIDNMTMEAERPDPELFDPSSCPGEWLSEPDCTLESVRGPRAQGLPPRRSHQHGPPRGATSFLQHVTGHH
In words: Kinase electrophoretic mobility shift assay, HIPK4. As to conditions: compounds tested at 10 μM, average of n = 2, ATP at apparent Km; read-out: HIPK4 activity (percent inhibition). In kind it is biochemical. How it is done: as §1

For a further assay, the target named is JNK2 (Homo sapiens, UniProt P45984). In words: Kinase electrophoretic mobility shift assay, JNK2. In kind it is biochemical. As to conditions: compounds tested at 10 μM, average of n = 2, ATP at apparent Km; read-out: JNK2 activity (percent inhibition). How it is done: as §1
Sequence of JNK2 (P45984 whole entry, species assumed): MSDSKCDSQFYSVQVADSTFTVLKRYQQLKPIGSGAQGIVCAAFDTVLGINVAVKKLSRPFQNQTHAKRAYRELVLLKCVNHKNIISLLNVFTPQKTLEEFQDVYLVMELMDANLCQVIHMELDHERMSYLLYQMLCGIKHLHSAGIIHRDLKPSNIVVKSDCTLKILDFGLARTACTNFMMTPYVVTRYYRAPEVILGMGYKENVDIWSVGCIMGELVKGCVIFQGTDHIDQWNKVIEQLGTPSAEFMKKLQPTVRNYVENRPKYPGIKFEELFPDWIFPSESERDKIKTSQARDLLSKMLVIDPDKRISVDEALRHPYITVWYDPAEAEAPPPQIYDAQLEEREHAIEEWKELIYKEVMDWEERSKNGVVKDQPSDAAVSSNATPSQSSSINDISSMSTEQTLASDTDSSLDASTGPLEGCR
A further assay addresses MAPK3 (Homo sapiens, UniProt P27361). In words: Kinase electrophoretic mobility shift assay, MAPK3. In kind it is biochemical. The following applies: compounds tested at 10 μM, average of n = 2, ATP at apparent Km; read-out: MAPK3 activity (percent inhibition). As to the method:
as §1

In a further assay the target is MNK2 (Homo sapiens, UniProt Q9HBH9). In words: Kinase electrophoretic mobility shift assay, MNK2. The following applies: compounds tested at 10 μM, average of n = 2, ATP at apparent Km; read-out: MNK2 activity (percent inhibition). In kind it is biochemical. How it is done:
as §1

The target of a further assay is P38 beta (Homo sapiens, UniProt Q15759). As to the kind of experiment: Kinase electrophoretic mobility shift assay, P38 beta. In kind it is biochemical. The following applies: compounds tested at 10 μM, average of n = 2, ATP at apparent Km; read-out: P38 beta activity (percent inhibition). How it is done: as §1
Sequence of P38 beta (Q15759 whole entry): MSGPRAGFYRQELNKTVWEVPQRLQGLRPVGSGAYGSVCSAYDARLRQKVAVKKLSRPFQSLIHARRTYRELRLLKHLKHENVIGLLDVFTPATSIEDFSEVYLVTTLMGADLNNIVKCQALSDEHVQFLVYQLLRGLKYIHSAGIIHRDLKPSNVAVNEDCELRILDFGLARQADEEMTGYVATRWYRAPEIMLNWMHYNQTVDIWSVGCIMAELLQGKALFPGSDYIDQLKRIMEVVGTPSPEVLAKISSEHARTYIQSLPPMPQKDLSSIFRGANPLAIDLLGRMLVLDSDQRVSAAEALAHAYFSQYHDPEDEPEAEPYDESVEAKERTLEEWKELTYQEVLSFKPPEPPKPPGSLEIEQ

Sequence of MNK2 (Q9HBH9 whole entry, species assumed): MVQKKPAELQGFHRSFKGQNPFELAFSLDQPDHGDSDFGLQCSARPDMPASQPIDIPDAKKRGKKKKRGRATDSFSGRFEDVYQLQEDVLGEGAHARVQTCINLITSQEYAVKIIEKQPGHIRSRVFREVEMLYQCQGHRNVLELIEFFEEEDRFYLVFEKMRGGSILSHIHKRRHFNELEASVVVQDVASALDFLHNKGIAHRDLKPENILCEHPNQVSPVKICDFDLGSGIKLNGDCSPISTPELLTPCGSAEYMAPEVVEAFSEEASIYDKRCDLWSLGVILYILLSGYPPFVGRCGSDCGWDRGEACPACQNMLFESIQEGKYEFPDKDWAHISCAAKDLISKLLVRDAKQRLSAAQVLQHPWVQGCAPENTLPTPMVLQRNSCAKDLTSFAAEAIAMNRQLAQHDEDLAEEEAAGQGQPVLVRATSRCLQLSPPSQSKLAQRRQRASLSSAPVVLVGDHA
Sequence of FMS (P07333 20-972, species assumed): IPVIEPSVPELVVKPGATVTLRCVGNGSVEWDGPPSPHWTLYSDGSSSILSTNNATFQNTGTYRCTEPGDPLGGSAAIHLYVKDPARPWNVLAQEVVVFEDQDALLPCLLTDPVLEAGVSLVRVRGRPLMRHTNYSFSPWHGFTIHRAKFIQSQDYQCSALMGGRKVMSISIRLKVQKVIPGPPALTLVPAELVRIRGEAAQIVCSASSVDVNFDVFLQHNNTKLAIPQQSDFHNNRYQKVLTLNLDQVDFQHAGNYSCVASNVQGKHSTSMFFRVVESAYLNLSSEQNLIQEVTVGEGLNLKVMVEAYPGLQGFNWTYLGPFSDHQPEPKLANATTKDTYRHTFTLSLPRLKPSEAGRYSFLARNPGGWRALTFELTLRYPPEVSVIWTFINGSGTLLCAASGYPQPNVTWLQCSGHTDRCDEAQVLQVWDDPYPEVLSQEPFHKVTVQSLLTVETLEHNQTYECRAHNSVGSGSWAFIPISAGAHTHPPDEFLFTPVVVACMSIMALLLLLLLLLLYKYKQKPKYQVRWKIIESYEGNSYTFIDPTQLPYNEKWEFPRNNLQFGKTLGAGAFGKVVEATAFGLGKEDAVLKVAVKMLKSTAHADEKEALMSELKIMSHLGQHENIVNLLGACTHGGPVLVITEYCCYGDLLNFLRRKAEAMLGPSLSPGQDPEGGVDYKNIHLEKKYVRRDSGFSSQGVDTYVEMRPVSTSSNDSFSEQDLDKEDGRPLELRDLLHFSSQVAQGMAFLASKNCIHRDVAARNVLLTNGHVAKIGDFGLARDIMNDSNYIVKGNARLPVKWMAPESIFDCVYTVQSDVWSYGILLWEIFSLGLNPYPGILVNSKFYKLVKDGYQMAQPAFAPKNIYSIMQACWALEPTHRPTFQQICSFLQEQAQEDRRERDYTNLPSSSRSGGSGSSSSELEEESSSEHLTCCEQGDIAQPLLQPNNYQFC
Sequence of GSK-3 beta (P49841 whole entry, species assumed): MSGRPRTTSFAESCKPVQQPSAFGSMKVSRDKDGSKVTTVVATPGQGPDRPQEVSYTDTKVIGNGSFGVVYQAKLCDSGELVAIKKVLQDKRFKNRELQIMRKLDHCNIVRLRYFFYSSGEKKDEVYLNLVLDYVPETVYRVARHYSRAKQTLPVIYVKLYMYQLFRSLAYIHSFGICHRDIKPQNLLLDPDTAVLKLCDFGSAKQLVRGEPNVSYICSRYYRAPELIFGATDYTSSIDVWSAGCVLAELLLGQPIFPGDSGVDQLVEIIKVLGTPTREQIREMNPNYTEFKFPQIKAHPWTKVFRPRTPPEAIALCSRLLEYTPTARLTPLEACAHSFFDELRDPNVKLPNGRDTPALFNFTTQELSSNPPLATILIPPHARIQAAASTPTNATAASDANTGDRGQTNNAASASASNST
Sequence of MAPK3 (P27361 whole entry): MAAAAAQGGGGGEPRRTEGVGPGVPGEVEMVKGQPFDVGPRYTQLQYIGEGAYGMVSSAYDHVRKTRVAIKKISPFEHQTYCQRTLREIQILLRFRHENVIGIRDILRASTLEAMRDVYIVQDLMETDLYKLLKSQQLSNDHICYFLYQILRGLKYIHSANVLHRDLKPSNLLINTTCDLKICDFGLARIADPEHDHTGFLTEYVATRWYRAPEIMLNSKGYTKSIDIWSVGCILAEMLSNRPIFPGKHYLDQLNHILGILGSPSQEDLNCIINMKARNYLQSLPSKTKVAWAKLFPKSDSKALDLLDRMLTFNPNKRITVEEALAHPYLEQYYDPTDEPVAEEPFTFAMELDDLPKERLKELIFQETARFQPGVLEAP

As for `CNC(=O)c1cc(Oc2ccc(NC(=O)Nc3ccc(Cl)c(C(F)(F)F)c3)c(F)c2)ccn1` [regorafenib], in [1], the disease progression result was “delayed disease progression” and the overall survival result is recorded as “significantly improved overall survival”.

As to `CC1(C)CNC(=O)c2cc3cnc(N[C@H]4CC[C@H](O)CC4)nc3n21` [Compd 4], the inhibition at 10 µM at Aurora -A is 50 to 70%; on DYRK3, 71 to 90%; at FMS it was above 90%; at GSK-3 beta, above 90%; on HIPK4, above 90%; on JNK2 it was above 90%. Further, the inhibition at 10 µM on MAPK3 fell in the range of 71 to 90%; on MNK2, 71 to 90%; at P38 beta it was 50 to 70%.

Turning to `O=C1NC2(CCCC2)Cn2c1cc1cnc(N[C@H]3CC[C@H](O)CC3)nc12` [Compd 6], the inhibition at 10 µM at Aurora -A was 50 to 70%; at DYRK3 it was 71 to 90%; on FMS, 50 to 70%; at GSK-3 beta it was above 90%; on HIPK4, above 90%; at JNK2, above 90%. Also, the inhibition at 10 µM is above 90% at MAPK3, 50 to 70% at MNK2 and 50 to 70% at P38 beta.

For the compound `O=C1NCC2(CCCC2)n2c1cc1cnc(N[C@H]3CC[C@H](O)CC3)nc12` [Compd 7], the inhibition at 10 µM on Aurora -A was above 90%; at DYRK3, above 90%; on FMS, 71 to 90%; on GSK-3 beta it was above 90%; on HIPK4, above 90%; at JNK2, above 90%. Moreover, the figures for the inhibition at 10 µM on MAPK3, on MNK2 and on P38 beta were above 90%, 71 to 90% and 71 to 90%, respectively.

`O=C1NCCn2c1cc1cnc(N[C@H]3CC[C@H](O)CC3)nc12` [Compd 3]: the inhibition at 10 µM at Aurora -A was below 50%; at DYRK3, 71 to 90%; on FMS, below 50%; on GSK-3 beta, 71 to 90%; at HIPK4, 71 to 90%; on JNK2, above 90%. In addition, the inhibition at 10 µM on MAPK3 is 71 to 90%; at MNK2, below 50%; on P38 beta, below 50%.

Regarding `CCC1Cn2c(cc3cnc(N[C@H]4CC[C@H](O)CC4)nc32)C(=O)N1` (some centres unmarked) [Compd 5], the inhibition at 10 µM is below 50% on Aurora -A; 71 to 90% on DYRK3; 71 to 90% on FMS; above 90% on GSK-3 beta; above 90% on HIPK4; above 90% on JNK2. The inhibition at 10 µM at MAPK3 was 71 to 90%; at MNK2, 50 to 70%; at P38 beta, 50 to 70%.

Turning to `Cc1ccccc1-c1c2n(c3nc(N[C@H]4CC[C@H](O)CC4)ncc13)CCNC2=O` [Compd 2], the inhibition at 10 µM on Aurora -A was below 50%; on DYRK3 it was below 50%; at FMS, below 50%; at GSK-3 beta it was below 50%; at HIPK4 it was below 50%; at JNK2 it was 71 to 90%. Also, the results for the inhibition at 10 µM on MAPK3, at MNK2 and at P38 beta were 50 to 70%, below 50% and below 50%, respectively.

As for `Cc1ccccc1-c1c2n(c3nc(Nc4ccc(N5CCOCC5)cc4)ncc13)CCNC2=O` [Compd 1], the inhibition at 10 µM on Aurora -A, on DYRK3, on FMS, on GSK-3 beta, on HIPK4 and on JNK2 was below 50% in each case. The inhibition at 10 µM on MAPK3, at MNK2 and at P38 beta was below 50% each time.

As usually defined, the inhibition is the percentage by which the read-out fell short of the control.
